Test results published in patent US12459898B2, “Polycationic amphiphiles as antimicrobial agents and methods using same” (Temple University-Of The Commonwealth System of Higher …, priority 2016, dated 2025).
≈ marks a conversion by molar mass, not a printed value.

Key:
Format in all cases: cell-based
[1] = test system: methicillin-susceptible Staphylococcus aureus MSSA (SH1000); test: Minimum inhibitory concentration (MIC), S. aureus; conditions: MH media, 37° C., 72 hours, visual growth
Protocol: (§1) As used herein, the term “minimum inhibitory concentration (MIC)” refers to the lowest concentration of an antimicrobial agent that will inhibit the visible growth of a microorganism after overnight incubation. MIC values against bacteria, for example, the Gram-positive Staphylococcus aureus and Enterococcus faecalis and the Gram-negative Escherichia coli and Pseudomonas aeruginosa were determined by standard methods. See also P. A. Wayne, Methods for Dilution Antimicrobial Tests for Bacteria that Grow Aerobically; Approved Standard, Ninth Edition, 2012, CLSI Document M07-A9, Vol. 32 No. 2, which is incorporated by reference herein in its entirety.
(§2) For all biological assays, laboratory strains of methicillin-susceptible Staphylococcus aureus MSSA (SH1000), Enterococcus faecalis (OG1RF), Escherichia coli (MC4100), Pseudomonas aeruginosa (PAO1), community-acquired methicillin-resistant Staphylococcus aureus CA-MRSA (USA300-0114), and hospital-acquired methicillin-resistant Staphylococcus aureus HA-MRSA (ATCC 33591) were grown with shaking at 37° C. overnight from freezer stocks in 10 mL of the indicated media.
(§3) Compounds were serially diluted two-fold from stock solutions to yield twelve test concentrations. Overnight S. aureus, E. faecalis, E. coli, P. aeruginosa, USA300-0114 (CA-MRSA), and ATCC 33591 (HA-MRSA) cultures diluted to ca. 10^6 cfu/mL in MH media and 100 μL were inoculated into each well of a U-bottom 96-well plate (BD Biosciences, BD 351177) containing 100 μL of compound solution. Plates were incubated statically at 37° C. for 72 hours upon which time wells were evaluated visually for bacterial growth. The MIC was determined as the lowest concentration of compound resulting in no bacterial growth visible to the naked eye, based on the majority of three independent experiments. Aqueous DMSO controls were conducted as appropriate for each compound.

[2] = test system: Enterococcus faecalis (OG1RF); test: Minimum inhibitory concentration (MIC), E. faecalis; conditions: MH media, 37° C., 72 hours, visual growth
Protocol: as §1, §2, §3

[3] = test system: Escherichia coli (MC4100); test: Minimum inhibitory concentration (MIC), E. coli; conditions: MH media, 37° C., 72 hours, visual growth
Protocol: as §1, §2, §3

[4] = test system: Pseudomonas aeruginosa (PAO1); test: Minimum inhibitory concentration (MIC), P. aeruginosa; conditions: MH media, 37° C., 72 hours, visual growth
Protocol: as §1, §2, §3

[5] = test system: community-acquired methicillin-resistant Staphylococcus aureus CA-MRSA (USA300-0114); test: Minimum inhibitory concentration (MIC), CA-MRSA; conditions: MH media, 37° C., 72 hours, visual growth
Protocol: as §1, §2, §3

[6] = test system: hospital-acquired methicillin-resistant Staphylococcus aureus HA-MRSA (ATCC 33591); test: microbe, parasite or virus in culture; conditions: for MIC: Staphylococcus aureus, 72 h, read-out: MIC, HA-MRSA
Protocol: as §1, §2, §3

[7] = test system: red blood cells (mechanically defibrinated sheep blood); test: Red blood cell (RBC) lysis assay (Lysis20); conditions: for Lysis20 (highest concentration at which <20% of RBCs are lysed): sheep RBCs in PBS, 37° C., 1 hour, absorbance 540 nm, Table 1
Excerpt: These assessments followed standard protocols (Minbiole et al., 2016, Tetrahedron, 72: 3559-3566, Forman et al., 2016, ChemMedChem, 11: 1401-1405, Forman et al., 2016, ChemMedChem, 11: 958-962, Mitchell et al., 2015, ChemBioChem, 16: 2299-2303, Jennings et al., 2015, ACS Inf. Dis, 1: 304-308, Paniak et al., 2014, Bioorg. Med. Chem. Lett, 24: 5824-5828, Ator et al., 2014, Bioorg. Med. Chem. Lett, 24: 3706-3709, Jennings et al., 2014, ChemBioChem, 15: 2211-2215, Black et al., 2014, Bioorg. Med. Chem. Lett, 24, 99-102, Grenier et al., 2012, Bioorg. Med. Chem. Lett, 22: 4055-4058).
RBC lysis assays were performed on mechanically defibrinated sheep blood (Hemostat Labs: DSB030). 1.5 mL of blood was placed into a microcentrifuge tube and centrifuged at 10,000 rpm for ten minutes. The supernatant was removed and the cells were resuspended with 1 mL of phosphate-buffered saline (PBS). The suspension was centrifuged as previously, the supernatant was removed, and cells were resuspended two more times. The final cell suspension was diluted twentyfold with PBS. The twentyfold suspension dilution was then aliquoted into microcentrifuge tubes containing compound serially diluted in PBS. TritonX (1% by volume) served as a positive control (100% lysis marker) and sterile PBS served as a negative control (0% lysis marker). Samples were then placed in an incubator at 37° C. and shaken at 200 rpm. After 1 hour, the samples were centrifuged at 10,000 rpm for ten minutes. The absorbance of the supernatant was measured with a UV spectrometer at a 540 nm wavelength.

SMILES: CCCCCCCCCCCCCCCCCC[n+]1ccc(CCCc2cc[n+](CCCCCCCCCCCCCCCCCC)cc2)cc1 [2Pyr-18,18]
- MIC [1]: 8 µM
- MIC [2]: 8 µM
- MIC [3]: > 250 µM
- MIC [4]: > 250 µM
- MIC [5]: 4 µM
- MIC [6]: 16 µM
- Lysis20 (highest concentration at which <20% of RBCs are lysed) [7]: 32 μm

SMILES: CCCCCCCCCCCCC[n+]1ccc(CCCc2cc[n+](CCCCCCCCCCCCC)cc2)cc1 [2Pyr-13,13]
- MIC [1]: 0.5 µM
- MIC [2]: 0.5 µM
- MIC [3]: 1 µM
- MIC [4]: 8 µM
- MIC [5]: 0.25 µM
- MIC [6]: 0.5 µM
- Lysis20 (highest concentration at which <20% of RBCs are lysed) [7]: 16 μm

SMILES: CCCCCCCCCCCCCCCCCC[n+]1cccc(CN(Cc2ccc[n+](CCCCCCCCCCCCCCCCCC)c2)Cc2ccc[n+](CCCCCCCCCCCCCCCCCC)c2)c1 [M3Pyr-18,18,18]
- MIC [1]: 8 µM
- MIC [2]: 32 µM
- MIC [3]: 63 µM
- MIC [4]: > 250 µM
- MIC [5]: 4 µM
- MIC [6]: 4 µM
- Lysis20 (highest concentration at which <20% of RBCs are lysed) [7]: 8 μm

SMILES: CCCCCCCCCC[n+]1ccc(CCCc2cc[n+](CCCCCCCCCC)cc2)cc1 [2Pyr-10,10]
- MIC [1]: 0.5 µM
- MIC [2]: 1 µM
- MIC [3]: 0.5 µM
- MIC [4]: 16 µM
- MIC [5]: 0.25 µM
- MIC [6]: 1 µM
- Lysis20 (highest concentration at which <20% of RBCs are lysed) [7]: 16 μm

SMILES: c1cc(CN(Cc2ccncc2)Cc2ccncc2)ccn1 [Compound P3Pyr, reference compound]
- MIC [1]: > 250 µM
- MIC [2]: > 250 µM
- MIC [3]: > 250 µM
- MIC [4]: > 250 µM
- MIC [5]: > 250 µM
- MIC [6]: > 250 µM
- Lysis20 (highest concentration at which <20% of RBCs are lysed) [7]: 125 μm

SMILES: CCCCCCCCCCCCCC[n+]1ccc(CCCc2cc[n+](CCCCCCCCCCCCCC)cc2)cc1 [2Pyr-14,14]
- MIC [1]: 8 µM
- MIC [2]: 1 µM
- MIC [3]: 4 µM
- MIC [4]: 250 µM
- MIC [5]: 2 µM
- MIC [6]: 2 µM
- Lysis20 (highest concentration at which <20% of RBCs are lysed) [7]: 63 μm

SMILES: CCCCCCCC[n+]1ccc(CCCc2cc[n+](CCCCCCCC)cc2)cc1 [2Pyr-8,8]
- MIC [1]: 8 µM
- MIC [2]: 63 µM
- MIC [3]: 32 µM
- MIC [4]: > 250 µM
- MIC [5]: 16 µM
- MIC [6]: 63 µM
- antibacterial resistance (increase in MIC) ([6]; strain not given, Table 1 fits HA-MRSA vs S. aureus): 8 fold
- Lysis20 (highest concentration at which <20% of RBCs are lysed) [7]: 125 μm

SMILES: CCCCCCCCCCCCCC[n+]1cccc(CN(Cc2ccc[n+](CCCCCCCCCCCCCC)c2)Cc2ccc[n+](CCCCCCCCCCCCCC)c2)c1 [M3Pyr-14,14,14]
- MIC [1]: 2 µM
- MIC [2]: 2 µM
- MIC [3]: 4 µM
- MIC [4]: 32 µM
- MIC [5]: 1 µM
- MIC [6]: 1 µM
- Lysis20 (highest concentration at which <20% of RBCs are lysed) [7]: 4 μm

SMILES: CCCCCCCCCCCC[n+]1ccc(CCCc2cc[n+](CCCCCCCCCCCC)cc2)cc1 [2Pyr-12,12]
- MIC [1]: 0.5 µM
- MIC [2]: 0.5 µM
- MIC [3]: 1 µM
- MIC [4]: 4 µM
- MIC [5]: 0.25 µM
- MIC [6]: 0.5 µM
- Lysis20 (highest concentration at which <20% of RBCs are lysed) [7]: 4 μm
- lysis20 (hemolysis activity) ([7]; sheep RBCs, values restated in text): 4 µM

SMILES: CCCCCCCCCCCCC[n+]1cccc(CN(Cc2ccc[n+](CCCCCCCCCCCCC)c2)Cc2ccc[n+](CCCCCCCCCCCCC)c2)c1 [M3Pyr-13,13,13]
- MIC [1]: 1 µM
- MIC [2]: 1 µM
- MIC [3]: 2 µM
- MIC [4]: 8 µM
- MIC [5]: 0.25 µM
- MIC [6]: 0.5 µM
- Lysis20 (highest concentration at which <20% of RBCs are lysed) [7]: 2 μm

SMILES: c1cncc(CN(Cc2cccnc2)Cc2cccnc2)c1 [Compound M3Pyr, reference compound]
- MIC [1]: 250 µM (≈ 72.6 µg/mL)
- MIC [2]: > 250 µM
- MIC [3]: > 250 µM
- MIC [4]: > 250 µM
- MIC [5]: 250 µM (≈ 72.6 µg/mL)
- MIC [6]: 250 µM (≈ 72.6 µg/mL)
- Lysis20 (highest concentration at which <20% of RBCs are lysed) [7]: >250 μm

SMILES: CCCCCCCC[n+]1cccc(CN(Cc2ccc[n+](CCCCCCCC)c2)Cc2ccc[n+](CCCCCCCC)c2)c1 [M3Pyr-8,8,8]
- MIC [1]: 2 µM
- MIC [2]: 8 µM
- MIC [3]: 8 µM
- MIC [4]: 32 µM
- MIC [5]: 1 µM
- MIC [6]: 2 µM
- Lysis20 (highest concentration at which <20% of RBCs are lysed) [7]: >250 μm

SMILES: CCCCCCCCCCCCCCCC[n+]1ccc(CCCc2cc[n+](CCCCCCCCCCCCCCCC)cc2)cc1 [2Pyr-16,16]
- MIC [1]: 4 µM
- MIC [2]: 8 µM
- MIC [3]: 63 µM
- MIC [4]: > 250 µM
- MIC [5]: 4 µM
- MIC [6]: 8 µM
- Lysis20 (highest concentration at which <20% of RBCs are lysed) [7]: 63 μm

SMILES: CCCCCCCCCCC[n+]1cccc(CN(Cc2ccc[n+](CCCCCCCCCCC)c2)Cc2ccc[n+](CCCCCCCCCCC)c2)c1 [M3Pyr-11,11,11]
- MIC [1]: 0.5 µM
- MIC [2]: 1 µM
- MIC [3]: 1 µM
- MIC [4]: 4 µM
- MIC [5]: 0.5 µM
- MIC [6]: 0.5 µM
- Lysis20 (highest concentration at which <20% of RBCs are lysed) [7]: 4 μm

SMILES: CCCCCCCCCCCCCCCC[n+]1cccc(CN(Cc2ccc[n+](CCCCCCCCCCCCCCCC)c2)Cc2ccc[n+](CCCCCCCCCCCCCCCC)c2)c1 [M3Pyr-16,16,16]
- MIC [1]: 2 µM
- MIC [2]: 8 µM
- MIC [3]: 125 µM
- MIC [4]: ≥ 250 µM
- MIC [5]: 4 µM
- MIC [6]: 2 µM
- Lysis20 (highest concentration at which <20% of RBCs are lysed) [7]: 4 μm

SMILES: CCCCCCCCCC[n+]1cccc(CN(Cc2ccc[n+](CCCCCCCCCC)c2)Cc2ccc[n+](CCCCCCCCCC)c2)c1 [M3Pyr-10,10,10]
- MIC [1]: 0.5 µM
- MIC [2]: 1 µM
- MIC [3]: 1 µM
- MIC [4]: 2 µM
- MIC [5]: 0.5 µM
- MIC [6]: 0.5 µM
- Lysis20 (highest concentration at which <20% of RBCs are lysed) [7]: 4 μm

SMILES: c1cc(CCCc2ccncc2)ccn1 [Compound 2Pyr, 1,3-di-(4-pyridyl)propane, reference compound]
- MIC [1]: > 250 µM
- MIC [2]: > 250 µM
- MIC [3]: > 250 µM
- MIC [4]: > 250 µM
- MIC [5]: > 250 µM
- MIC [6]: > 250 µM
- Lysis20 (highest concentration at which <20% of RBCs are lysed) [7]: >250 μm

SMILES: CCCCCCCCCCCC[n+]1cccc(CN(Cc2ccc[n+](CCCCCCCCCCCC)c2)Cc2ccc[n+](CCCCCCCCCCCC)c2)c1 [M3Pyr-12,12,12]
- MIC [1]: 1 µM
- MIC [2]: 1 µM
- MIC [3]: 1 µM
- MIC [4]: 8 µM
- MIC [5]: 0.5 µM
- MIC [6]: 1 µM
- Lysis20 (highest concentration at which <20% of RBCs are lysed) [7]: 4 μm
